According to patent US20230203041A1, “ANTAGONISTS OF THE ADENOSINE A2A RECEPTOR” (AdoRx Therapeutics Limited, priority 2020, published 2023):

Columns and labels:
[1] = molecular target: T1, human Adenosine A2b receptor (Homo sapiens, UniProt P29275); test: Adenosine receptor TR-FRET binding assay (CA200645 displacement), A2b; settings: 30 nM CA200645, CHO cell membranes, 2 hours at room temperature
T1 construct: expressed in transfected cells; host or cells: CHO cell membranes
T1 sequence (P29275 1-332): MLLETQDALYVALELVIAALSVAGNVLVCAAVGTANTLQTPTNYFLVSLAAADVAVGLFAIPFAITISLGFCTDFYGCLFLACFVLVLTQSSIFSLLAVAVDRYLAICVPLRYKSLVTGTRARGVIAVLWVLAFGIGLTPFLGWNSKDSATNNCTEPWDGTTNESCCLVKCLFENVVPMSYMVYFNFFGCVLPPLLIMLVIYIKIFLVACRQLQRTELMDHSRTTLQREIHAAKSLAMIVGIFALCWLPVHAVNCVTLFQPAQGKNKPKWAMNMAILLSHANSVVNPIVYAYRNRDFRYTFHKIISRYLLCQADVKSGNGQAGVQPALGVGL
Experimental: (§1) All FRET binding experiments were conducted at room temperature in white 384-well plates, in assay binding buffer containing 1×LabMed (Cisbio, France), 100 μg/mL saponin, 1% DMSO and 0.02% pluronic acid. Binding of the fluorescently labelled Adenosine receptor antagonist XAC (CA200645, FRET acceptor) to terbium-labelled A1, A2a, A2b and A3 adenosine receptors (FRET donors) was detected by time-resolved FRET due to the close proximity of the donor and acceptor in a binding event. To investigate the ability of unlabelled test compounds to bind to Adenosine A1, A2a, A2b and A3 receptors, dose response curves were constructed that determined the ability of a range of concentrations to inhibit the binding of 30 nM CA200645 to the A2b receptor and 100 nM CA200645 to the A1, A2a, and A3 receptor.
(§2) Serial dilution (1:3 dilutions) of test compounds in neat DMSO and transfer of a 400 nL sample of test compound into the assay plate was carried out using the Mosquito (TTP Labtech, UK). The compound samples were incubated for 2 hours at room temperature with a fixed concentration of CA200645 defined for each receptor (see above) and CHO cell membranes containing the human Adenosine A1 (0.5 μg/well), A2a (0.3 μg/well), A2b (1 μg/well) or A3 (1 μg/well) receptor in 40 μL of assay buffer. Total and non-specific binding of CA200645 was determined in the absence and presence of 10 μM XAC, respectively. Following 2 hours incubation, the level of CA200645 binding was detected on a Pherastar FSX (BMG Labtech, Germany) using standard TR-FRET settings. The terbium donor was excited with three laser flashes at a wavelength of 337 nm, and donor and acceptor emission was detected at 620 nm and 665 nm wavelengths, respectively. FRET ratios were obtained by multiplying the acceptor/donor ratio value by 10,000. Specific binding was determined by subtracting the non-specific binding FRET ratio from the total binding FRET ratio. Compound IC50 curves were analysed using GraphPad Prism 7.0 (GraphPad, USA) and Ki affinity values were determined from the obtained IC50 values using the method of Cheng and Prusoff.

[2] = molecular target: T2, human Adenosine A3 receptor (Homo sapiens, UniProt P0DMS8); test: Adenosine receptor TR-FRET binding assay (CA200645 displacement), A3
T2 sequence (P0DMS8 1-318): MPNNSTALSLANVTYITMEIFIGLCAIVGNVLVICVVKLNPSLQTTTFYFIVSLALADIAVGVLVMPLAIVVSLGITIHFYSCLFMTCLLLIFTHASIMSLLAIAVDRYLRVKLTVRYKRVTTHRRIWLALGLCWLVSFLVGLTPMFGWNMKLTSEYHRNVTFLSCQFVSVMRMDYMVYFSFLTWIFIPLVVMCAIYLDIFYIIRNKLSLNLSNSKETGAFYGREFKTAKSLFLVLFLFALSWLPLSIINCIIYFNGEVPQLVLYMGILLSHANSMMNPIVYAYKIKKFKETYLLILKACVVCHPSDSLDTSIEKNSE

[3] = molecular target: T3, human Adenosine A2a receptor (Homo sapiens, UniProt P29274); test: Adenosine receptor TR-FRET binding assay (CA200645 displacement), A2a; settings: 100 nM CA200645, CHO cell membranes, 2 hours at room temperature
T3 construct: expressed in transfected cells; host or cells: CHO cell membranes
T3 sequence (P29274 whole entry): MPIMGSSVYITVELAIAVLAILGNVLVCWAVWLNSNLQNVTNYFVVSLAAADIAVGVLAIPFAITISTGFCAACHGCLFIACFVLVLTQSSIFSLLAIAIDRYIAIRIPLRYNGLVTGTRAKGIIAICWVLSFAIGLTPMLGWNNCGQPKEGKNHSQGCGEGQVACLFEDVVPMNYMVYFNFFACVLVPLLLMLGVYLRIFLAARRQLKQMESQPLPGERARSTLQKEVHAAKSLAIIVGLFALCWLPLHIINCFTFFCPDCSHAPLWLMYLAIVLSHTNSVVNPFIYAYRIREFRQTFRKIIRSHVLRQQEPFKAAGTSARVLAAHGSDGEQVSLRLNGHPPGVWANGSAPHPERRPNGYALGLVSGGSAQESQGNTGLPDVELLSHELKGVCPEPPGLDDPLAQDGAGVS

[4] = molecular target: T4, human Adenosine A1 receptor (Homo sapiens, UniProt P30542); test: Adenosine receptor TR-FRET binding assay (CA200645 displacement), A1
T4 sequence (P30542 1-326): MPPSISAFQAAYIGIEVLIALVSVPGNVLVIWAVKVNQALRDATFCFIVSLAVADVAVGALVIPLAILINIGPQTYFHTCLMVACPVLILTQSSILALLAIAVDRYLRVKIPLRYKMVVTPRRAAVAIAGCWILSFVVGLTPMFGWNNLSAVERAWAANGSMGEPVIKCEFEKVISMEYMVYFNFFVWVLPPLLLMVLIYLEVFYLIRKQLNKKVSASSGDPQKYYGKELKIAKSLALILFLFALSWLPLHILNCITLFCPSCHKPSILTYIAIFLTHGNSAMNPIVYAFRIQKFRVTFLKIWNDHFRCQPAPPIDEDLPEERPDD
Experimental: as §1, §2

[5] = tested on: CD8+ T cells in human whole blood; test: Measurement of pCREB in CD8+ T cells in human whole blood; format: cell-based; settings: T-cell, 1 h; heparinised human whole blood, rolipram, 3 μM NECA, 60 min, phospho-CREB in CD8+ T cells by FACS
Experimental: Heparinised human whole blood was pre-incubated at 37° C. with serial dilutions of A2a antagonists for 20 min. and the phosphodiesterase inhibitor rolipram to amplify the pCREB response. The adenosine receptor agonist NECA is then added at a final concentration of 3 μM and following a 60 min incubation the blood is fixed and red blood cells lysed. White blood cells are isolated, permeabilized and stained with directly conjugated fluorescent antibodies to phospho-CREB (Alexa Fluor 488) and CD8 (Alexa Fluor 647) and the level of phospho-CREB in CD8+ T cells is measured by FACS using a BD Accuri C6 Flow Cytometer.

[6] = tested on: human PBMCs; test: CD3/CD28 stimulated IL-2 release NECA reversal assay in human PBMCs; format: cell-based; settings: PBMC, CD3/CD28 antibody stimulated, 1 uM NECA, 24 hours, IL-2 in culture supernatant;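 note: dose-response as % inhibition where 100% equals no-NECA control wells with CD3/CD28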
Experimental: Blood is drawn from healthy volunteers using sodium citrate as the anticoagulant (0.3% final concentration). After centrifugation of the blood over Histopaque-1077, PBMCs are collected from the Histopaque/plasma interface and washed twice in PBS (300 g for 10 mins at room temp). Cells are plated at 50,000 cells/well in 150 μl RPMI/10% FCS in 96-well cell culture plates that have been precoated with 1 ug/ml CD3 antibody. 50 μl diluted compound mix is added to the cells, to obtain final concentrations of 1 ug/ml CD28 antibody, 1 uM NECA and 0.003-10 μM adenosine receptor antagonist. Assay plates are incubated for 24 hours at 37° C. in a humidified incubator. Culture supernatant is tested for IL-2 levels using the human IL-2 Tissue Culture Kit (Meso Scale Discovery).

Compound	Ki [1]	Ki [2]	Ki [3]	Ki [4]	IC50 [5]	IC50 [6]
Cc1cc(-c2c(-c3cccc(C#N)c3)nn3ccc(NC[C@@H](C)O)nc23)cc(Cl)n1 [Example 3, 3-[3-(2-Chloro-6-methyl-4-pyridyl)-5-[[(2R)-2-hydroxypropyl]amino]pyrazolo[1,5-a]pyrimidin-2-yl]benzonitrile]	1 nM	> 1000 nM	0.6 nM	74 nM	750 nM	17 nM
Cc1cc(-c2c(-c3cccc(C#N)c3)nn3ccc(NC[C@H](C)O)nc23)cc(Cl)n1 [Example 3.1]	5 nM	2600 nM	2.2 nM	58 nM	560 nM	23 nM
Cc1cc(-c2c(-c3cccc(C#N)c3)nn3ccc(NCC4(O)CC4)nc23)cc(Cl)n1 [Example 3.4]	2 nM	2450 nM	0.4 nM	56 nM	260 nM	100 nM
Cc1cc(-c2c(-c3cccc(C#N)c3)nn3ccc(NC4CCNCC4)nc23)cc(Cl)n1 [Example 4, 3-[3-(2-Chloro-6-methyl-4-pyridyl)-5-(4-piperidylamino)pyrazolo[1,5-a]pyrimidin-2-yl]benzonitrile]	3 nM	> 1000 nM	0.1 nM	15 nM	1570 nM	8 nM
Cc1cc(-c2c(-c3cccc(C#N)c3)nn3ccc(N[C@@H]4CCCNC4)nc23)cc(Cl)n1 [Example 4.2]	34 nM	> 1000 nM	1.2 nM	32 nM	2030 nM	54 nM
Cc1cc(-c2c(-c3cccc(C#N)c3)nn3ccc(NC[C@H]4COCCN4)nc23)cc(Cl)n1 [Example 4.5]	25 nM	> 1000 nM	4.2 nM	189 nM	1060 nM	12 nM
Cc1cc(-c2c(-c3cccc(C#N)c3)nn3ccc(C(=O)NC45CC(O)(C4)C5)nc23)cc(Cl)n1 [Example 5, 3-(2-Chloro-6-methyl-4-pyridyl)-2-(3-cyanophenyl)-N-(3-hydroxy-1-bicyclo[1.1.1]pentanyl)pyrazolo[1,5-a]pyrimidine-5-carboxamide]	9 nM	> 1000 nM	0.8 nM	296 nM	1820 nM	23 nM
Cc1cc(-c2c(-c3cccc(C#N)c3)nn3ccc(C(=O)NC(C)(C)C)nc23)cc(Cl)n1 [Example 5.1]	16 nM	> 1000 nM	0.1 nM	477 nM	2860 nM	20 nM
Cc1cc(-c2c(-c3cccc(C#N)c3)nn3ccc(C(=O)NCC(C)(C)O)nc23)cc(Cl)n1 [Example 5.2]	24 nM	> 1000 nM	0.2 nM	294 nM	280 nM	4 nM
Cc1cc(-c2c(-c3cccc(C#N)c3)nn3ccc(C(N)=O)nc23)cc(Cl)n1 [Example 5.6]	16 nM	> 1000 nM	4.6 nM	303 nM	8540 nM	16 nM
Cc1cc(-c2c(-c3cccc(C#N)c3)nn3ccc(C(=O)N[C@@H](C)C(C)(C)O)nc23)cc(Cl)n1 [Example 6, 3-(2-Chloro-6-methyl-4-pyridyl)-2-(3-cyanophenyl)-N-[(1S)-2-hydroxy-1,2-dimethyl-propyl]pyrazolo[1,5-a]pyrimidine-5-carboxamide]	6 nM	945 nM	0.1 nM	57 nM	30 nM	2 nM
Cc1cc(-c2c(-c3cccc(C#N)c3)nn3ccc(C(=O)NCC4(O)CC4)nc23)cc(Cl)n1 [Example 6.2, 3-(2-Chloro-6-methyl-4-pyridyl)-2-(3-cyanophenyl)-N-[(1-hydroxycyclopropyl)methyl]pyrazolo[1,5-a]pyrimidine-5-carboxamide]	10 nM	2310 nM	0.3 nM	122 nM	830 nM	8 nM
